pIC50: −log10 of the molar value. Where two headings read alike, the source gives them in different places. Each block holds one compound with its values, some of them ahead of it.
Columns and labels:
mast cells of the rat = experiment: Inhibition of histamine release from rat mast cells; format: cell-based, rat (SD strain); settings: Mast cell, read-out: Inhibiton of histamine release (%)
Description: A 1 ml of anti-DNP-Ascaris (Didets) anti-serum (prepared as described in J. Immunol., 106:1002, 1971) was injected into the peritoneal cavity of 5 SD strain rats of 7 weeks old. Forty eight hours later, the animals were bled to death, and 20 ml of HBSS (Hanks balanced salt solution) was injected into their peritoneal cavity. After about 90 second massaging, the HBSS washing was recovered, and cells released into the peritoneal cavity were collected from the washing. The ascitic cells thus collected were washed once with 0.1% BSA/Tyrode-HEPES, and then resuspended in 0.1% BSA/Tyrode-HEPES to give a suspension with a density of 5×10^6 cells/ml. The cell suspension was incubated at 37° C. for 10 minutes in the presence/absence of a test substance, that is, the compound listed in Table 6.
To the resulting mixture was added a histamine releasing agent (20 μg/ml of DNP-Ascaris (DNP-As) (Didets)+25 μg/ml of phosphatidylserine (PS) or 0.2 μg/ml of calcium ionophore A23187), and the reaction was allowed to proceed at 37° C. for 20 minutes. Then, the cell suspension was centrifuged to obtain supernatant. Histamine released in the supernatant was determined by the fluorescent method (J. Pharmacol. Exp. Ther. 127:182, 1959). Inhibitory effect (%) of a given compound of this invention on histamine release was calculated relative to the histamine release when the compound was not coexistent.

human basophils = experiment: Inhibition of histamine release from human basophils; format: cell-based; parameters: dose or concentration left out as unconfirmed
Description: To human heparinized peripheral blood was added 1/10 volume of 6% Dextran 500 in saline, and the mixture was allowed to stand at room temperature for 1 hour, to isolate a plasma layer containing leukocytes. The leukocytes were separated by centrifugation, washed with PIPE-A (119 mM NaCl, 5 mM KCl, 25 mM PIPES, 40 mM NaOH, 5.6 mM glucose, and 0.03% human serum albumin), and suspended in PIPES-ACM (PIPES A, 1 mM CaCl2 and 0.4 mM MgCl2) to give a cell suspension of a density of 4×10^6 cells /ml. To this cell suspension was added the compound of this invention listed in Table 7 as a test drug (0.1 M solution of the compound in DMSO was diluted with PIPES-ACM to give a […]), or the cell suspension was left untouched. After 30 second, calcium ionophore A23187 ([…]) was added. The reaction was allowed to proceed at 37 for 45 minutes. The resulting mixture was centrifuged to isolate a supernatant. Histamine release in the supernatant was determined by the fluorescent method. Inhibitory effect (%) of a given compound of this invention on histamine release was calculated relative to the histamine release when the compound was not coexistent(refer to Allergy, 37:313-321, 1988).

[1] = system: leukotrien B4 (LTB4) production; experiment: Inhibition of leukotrien B4 (LTB4) production in RBL-1 basophils; format: cell-based; settings: Rattus norvegicus; RBL-1 cells, calcium ionophore A23187
Description: The basophils from rats of RBL-1 line (Dainippon Pharmaceutical Co.) cultured on DMEM (Dulbecco's modified Eagle medium) containing 10% FCS suspended in 10 mM HEPES-NaOH buffer (pH 7.4), 90 mM NaCl, 3.7 mM KCl, 0.9 mM CaCl2, 5.6mM glucose, and the compound of this invention listed in Table 8 as a test drug, to give a suspension of a density of 2×10^6 cells/ml. The suspension was allowed to stand at 37 for 5 minutes, and calcium ionophores A23187 were added thereto in such a manner that the concentration of […] was obtained in the end. The reaction was allowed to proceed at 37 for 10 minutes, and the supernatant was sampled for the ELISA assay (Cayman Chemical, Catalog No. 520111, and J. Immunol., 119:618-622, 1977) of leukotrien B4 (LTB4). IC50 of a given compound of this invention for inhibition of leukotrien production was calculated relative to the production of LTB4 when the compound was not coexistent.

[2] = releasing agent DNP-As + PS, 10 μM
[3] = releasing agent DNP-As + PS, 100 μM
[4] = releasing agent calcium ionophore A23187, 10 μM
[5] = releasing agent calcium ionophore A23187, 100 μM

pIC50 [1]: 6.68
SMILES: O=C(Nc1ccccc1C(=O)O)c1ccc(Oc2ccc3ccccc3c2)cc1 [Compound No. 1104, 2-(4-(2-naphtyloxy)benzamide)benzoic Acid]
inhibition at 10 µM (mast cells of the rat; [2]): 42.7% | inhibition at 100 µM (mast cells of the rat; [3]): 84.2% | inhibition at 10 µM (mast cells of the rat; [4]): 75.4% | inhibition at 100 µM (mast cells of the rat; [5]): 78% | Inhibition of histamine release (%) (human basophils): 20.4%

pIC50 [1]: 6.22
SMILES: O=C(Cc1ccc(Oc2ccc3ccccc3c2)cc1)Nc1ccccc1C(=O)O [Compound No. 1126, 2-(4-(2-naphtyloxy)phenylacetamide)benzoic acid]
inhibition at 10 µM (mast cells of the rat; [2]): 25.4% | inhibition at 100 µM (mast cells of the rat; [3]): 90.2% | inhibition at 10 µM (mast cells of the rat; [4]): 54.2% | inhibition at 100 µM (mast cells of the rat; [5]): 79.8% | Inhibition of histamine release (%) (human basophils): 55.8%
